From paper PMC10024865 (Journal of medicinal chemistry, 2022)
One block for each compound: values may come before it.

What was measured:
PC3M cells [1] = test: BellBrook Labs tumor cell migration; format: cell-based; conditions: 3D collagen
PC3M cells [2] = test: Secondary cytotoxicity/viability assays; format: cell-based; conditions: ATP, caspase 3/7, PicoGreen
[3] = system: PNC prevalence in PC3M cells (GFP-PTB); test: High-content assay for PNC reduction; format: cell-based
[4] = mouse, in vivo, ip, 5 mg/kg
[5] = system: nucleolar volume in PC3M cells; test: Nucleolar disassembly assay; format: cell-based; conditions: 24 hr, concentration-response
in vivo = conditions: ip
[6] = Parallel artificial membrane permeability assay; format: in vitro ADME; conditions: pH 7.4
[7] = system: nucleolar architecture in PC3M cells; test: Immunofluorescence of nucleolar markers RP-194 and NOPP140; format: cell-based; conditions: 1 μM, 1 hour

Compound: O=C(Nc1cccnc1)c1cccs1 [CID 790407]
- Activity in the invasion assay (PC3M cells [1]): active
- Activity in all other secondary cytotoxicity/viability assays (PC3M cells [2]): inactive

Compound: N#Cc1c(-c2ccccc2)c(-c2ccccc2)n(Cc2ccccc2)c1N [Compound 2a]
- PNC reduction activity (in words) [3]: inactive

Compound: CCO/C=N/c1c(C#N)c(-c2ccccc2)c(-c2ccccc2)n1Cc1ccccc1 [Compound 3a, Ethyl (E)-N-(1-benzyl-3-cyano-4,5-diphenyl-1H-pyrrol-2-yl)formimidate]
- PNC reduction activity (in words) [3]: inactive

Compound: N#Cc1c(-c2ccccc2)c(-c2ccccc2)n(Cc2ccccc2)c1/N=C/N[C@H]1CC[C@H](O)CC1 [Compound 4f, (E)-N'-(1-benzyl-3-cyano-4,5-diphenyl-1H-pyrrol-2-yl)-N-((trans)-4-hydroxycyclohexyl)formimidamide]
- PNC reduction activity (in words) [3]: inactive

- C48h (μM) [4]: BLQ^b
- half-life (in vivo; female, BALB/c, mouse, 5 mg/kg): 4.64 h
- half-life (in vivo; female, BALB/c, mouse, 25 mg/kg): 5.52 h
- concentration at 48 h (in vivo; female, BALB/c, mouse, 25 mg/kg, C48h (μM)): 0.011 µM
- half-life (in vivo; male, C57BL/6, mouse, 50 mg/kg): 16.4 h
Compound: N=c1c2c(-c3ccccc3)c(-c3ccccc3)n(Cc3ccccc3)c2ncn1[C@H]1CC[C@H](O)CC1 [Compound 5f, trans-4-(7-Benzyl-4-imino-5,6-diphenyl-4,7-dihydro-3H-pyrrolo[2,3-d]pyrimidin-3-yl)cyclohexan-1-ol]
- effect on nucleolar volume [5]: able to reduce nucleolar volume

- PAMPA permeability (in words) [6]: negligible
Compound: Cc1c(C)n(Cc2ccccc2)c2ncn([C@H]3CC[C@H](O)CC3)c(=N)c12 [Compound 5nnn, (trans)-4-(7-Benzyl-4-imino-5,6-dimethyl-4,7-dihydro-3H-pyrrolo[2,3-d]pyrimidin-3-yl)cyclohexan-1-ol]

Compound: N=c1c2c(-c3ccccc3)cn(Cc3ccccc3)c2ncn1C1CCOCC1 [Compound 11b, 7-Benzyl-5-phenyl-3-(tetrahydro-2H-pyran-4-yl)-3,7-dihydro-4H-pyrrolo[2,3-d]pyrimidin-4-imine]
- distribution of RP-194 and NOPP140 in the nucleolus [7]: diffuse distribution
- effect on nucleolar volume [5]: did not influence nucleolar integrity and morphology

Compound: OCCCNc1ncnc2c1c(-c1ccccc1)c(-c1ccccc1)n2Cc1ccccc1 [Compound 13a, 3-((7-Benzyl-5,6-diphenyl-7H-pyrrolo[2,3-d]pyrimidin-4-yl)amino)propan-1-ol]
- PNC reduction activity (in words) [3]: uniformly inactive

Compound: O[C@H]1CC[C@H](Nc2ncnc3c2c(-c2ccccc2)c(-c2ccccc2)n3Cc2ccccc2)CC1 [Compound 13b, trans-4-((7-Benzyl-5,6-diphenyl-7H-pyrrolo[2,3-d]pyrimidin-4-yl)amino)cyclohexan-1-ol]
- PNC reduction activity (in words) [3]: uniformly inactive
